From patent US20120213826A1, “Use of Pro-Inflammatory Compounds for Promoting Bone Formation” (Imperial Innovations Limited, priority 2009, published 2012)
Entries after “also recorded” stand apart in the source; their conditions may differ. Read-outs that look alike come from different tables or passages of the source.

Experiments:
[1] = test system: murine open tibial fracture; assay: Murine open tibial fracture model, periosteally stripped (histology, CT scans); type: in vivo, C57BI/6 mice; conditions: for fracture healing: 1-MT, 20 μl in PBS at fracture site; for healing of tibial fractures by CT scans: 28 days post injury, local administration at fracture site (TNFα 50 ng/kg and HMGB1 at time of fracture and 24 hr later) (FIG. 19, 30)
Aqueous solubility = type: physicochemical
[2] = test system: muscle-derived stromal cells (MDSC); assay: ALP quantification assay, osteogenic differentiation of cultured MDSC; type: cell-based, human; conditions: for ALP expression (osteogenic differentiation) in cultured MDSC: Example 1, exogenous recombinant human factor added to MDSC culture (FIG. 8, 10, 12); for ALP expression by MDSC: 7 days in human serum-containing media with recombinant human factor (FIG. 26B, 26D)
Excerpt: The immunoglobulin isotype controls used included IgG^1 for AbBMP-2/4 and AbTGF-β, and IgG^2B for Ab-BMP-7. B: human serum containing culture medium with the addition of recombinant human BMPs and TGF-β. C: fracture supernatant±antibody neutralization of TNF-α, IL-6 and IL-1β. The IgG^1 immunoglobulin was used as the antibody isotype control. D: human serum-containing culture medium with the addition of recombinant human TNF-α, IL-6 and IL-1β. E: Alizarin red staining for bone nodule formation after culture of 1×10^4 MDSC in human serum-containing media. […] A representative image from a single well is shown. All experiments were performed 3 times, in triplicate (n=3) using MDSC from 3 donors. Values for A-D represent a mean from 3 experiments ±SEM, using supernatant from 3 donors in A and C. *: P<0.05; **: P<0.01; ***: P<0.001; 1-way ANOVA with Bonferroni's multiple comparison test in A and C and with Dunnett's multiple comparison test against the media only control in B and D.
To investigate the fracture-derived stimulus for osteogenic differentiation of MDSC, fracture supernatants were prepared using human tibial fracture fragments obtained within 24 hours of injury (ethics approval number—COREC No: 07/Q0411/30). […] Bone fragments were obtained from either fractured tibial fragments or non-traumatically cut bone slices. These were then incubated in serum free DMEM+Glutamax media for 24 hours. The supernatant was then filter sterilised to remove any contaminants and cellular debris. MDSC were then cultured in the presence of either control media, osteogenic media, fracture supernatant or non-fracture supernatant for 7 days before lysis and quantification of ALP levels.
1×10^4 human MDSC were added to wells of a 96 well plate in triplicate. At 24 hrs the media was pipetted off and replaced by 200 μl test media. The media was changed every 3 days. At 7 days the media was removed and the cells lysed in 20 μl NP-40 lysis buffer. An ALP quantification assay (WAKO pure chemical Ltd.) was used. Calibration solution from the assay was serially diluted to make concentrations of 0.25, 0.125 and 0.0625 mmol/L. To empty wells, 20 μl of each calibration solution was added. To another, dH2O was added. 100 μl reagent (1 taBIet per 5 ml buffer solution) was added to each well, and incubated at 37° C. for 20 minutes. 80 μl stop solution was then added to each well and the plate was read using an ELISA spectrometer at 405 nm wavelength. The concentration of ALP in the test wells was extrapolated from the standard curve.

[3] = test system: muscle-derived stromal cells (MDSC); assay: Bone nodule formation by MDSC (alizarin red staining); type: cell-based, human; conditions: Example 3; recombinant cytokine at optimal dose for first 3 days, human serum-containing media (FIG. 26E)
Excerpt: FIG. 26 TNF-α and IL-6 promote osteogenic differentiation of MDSC A-D: ALP quantification assays after culture of 1×10^4 MDSC for 7 days in a 96-well plate in triplicate with: A: fracture supernatant, ±antibody neutralization of BMPs 2/4 7 and to TGF-β. The immunoglobulin isotype controls used included IgG^1 for AbBMP-2/4 and AbTGF-β, and IgG^2B for Ab-BMP-7. B: human serum containing culture medium with the addition of recombinant human BMPs and TGF-β. C: fracture supernatant±antibody neutralization of TNF-α, IL-6 and IL-1β. The IgG^1 immunoglobulin was used as the antibody isotype control. D: human serum-containing culture medium with the addition of recombinant human TNF-α, IL-6 and IL-1β. E: Alizarin red staining for bone nodule formation after culture of 1×10^4 MDSC in human serum-containing media. Recombinant human cytokine at the optimal dose indicated by D, was added for the first 3 days ONLY, and the cells were subsequently cultured in media for 32 days. A representative image from a single well is shown. All experiments were performed 3 times, in triplicate (n=3) using MDSC from 3 donors. Values for A-D represent a mean from 3 experiments ±SEM, using supernatant from 3 donors in A and C. *: P<0.05; **: P<0.01; ***: P<0.001; 1-way ANOVA with Bonferroni's multiple comparison test in A and C and with Dunnett's multiple comparison test against the media only control in B and D.
1×10^4 MDSC were added to wells of a 24-well plate in triplicate. The cells were cultured for 35-40 days in osteogenic media (DMEM with 10% fetal calf serum and 1% penicillin/streptomycin also containing 100 nM dexamethasone (SIGMA), 1 mM β-glycerol phosphate and […] ascorbic acid), supernatant or media containing recombinant cytokines (with one media change per week) the cells were fixed with 2 ml 10% neutral buffered formalin at room temperature for 15 min. The plate was then washed twice with excess PBS. 1 ml filtered 40 mM alizarin red solution (pH 4.1) was added to each well and agitated at room temperature for 30 minutes. The excess dye was then aspirated and the plate washed four times in distilled water with gentle agitation. Finally, the plates were turned upside-down on paper to dry. Bone nodules appeared red under light microscopy. Images were taken at 20 times magnification and performed as above.

[4] = test system: muscle-derived stromal cells (MDSC); assay: MDSC migration through a transwell membrane; type: cell-based, human; conditions: for migration of MDSC: 8 μm transwell, 36 hours, recombinant cytokine in human serum-containing media (FIG. 27B)
Experimental: Migration of 1×10^4 MDSC through an 8 μm pore transwell membrane over 36 hours, in response to fracture supernatant with the addition of AbTNF-α, AbIL-6 and AbIL-1β. The IgG^1 immunoglobulin was used as the antibody control. B: Migration in response to rhTNF-α, rhIL-6 and rhIL-1β in human serum-containing media. Results represent change in cell number, expressed as a percentage of the supernatant, or media only control. Each experiment was performed 3 times (n=3) using 3 fracture supernatants (in A). Results represent mean of 3 experiments ±SEM. *: P<0.05; **: P<0.01; ***: P<0.001; 1-way ANOVA with Bonferroni's multiple comparison test.
MDSC must be recruited to the fracture site from adjacent muscle. Next we assessed the efficacy of the pro-inflammatory cytokines in attracting MDSC in vitro using a transwell assay. 1×10^4 MDSC were seeded onto a 8 μm transwell membrane in serum free media. Next day, the transwell membrane was added to a well containing 10% human serum-containing media +IL-1β, IL6 and TNFα at the end concentrations shown. At 24 hrs the membrane was cleared of any cells on the seeded side, fixed and stained. IL-1β appeared not promote MDSC chemotaxis.
500 μl serum free media was added to each well of a 24 well plate. 8 μm pore transwell membranes (VWR International Ltd) were then added to the wells. 1×10^4 MDSC in serum free media were added to the upper chamber of each transwell membrane. At 12 hours the serum-free media was replaced with test or control media or supernatant and incubated at 37° C. for 36 hours. The upper chambers were then cleared of cells and cell debris using a cotton bud, in sweeping motions. The membrane was then washed and fixed using 10% neutral buffered formalin for 1 hour. After washing, the membrane was then added to a 1% crystal violet solution for 1 hour. After further washing, the membranes were viewed under light microscopy at 20 times magnification, using an Olympus CKX41 microscope with a QICAM camera, (QIMAGING, GT vision LLC). The number of cells present on the underside of the transwell membrane in any random field was counted 3 times and the mean calculated. Cell migration was calculated against the supernatant or human serum-containing (control) media and the number expressed as a percentage relative to the control media.

[5] = test system: muscle-derived stromal cells (MDSC); assay: MDSC proliferation (CellTiter-Glo luminescent cell viability assay); type: cell-based, human; conditions: Example 3; for MDSC proliferation: 1, 3 and 5 days in human serum-containing media ± recombinant human cytokine (FIG. 28); for cell proliferation in excess of the media-only control: recombinant human BMPs, data not shown
Experimental: CellTiter-Glo® luminescent cell viability assay for MDSC in culture with A: TNF-α, B: IL-6 and C: IL-1β. 2.5×10^3 cells were cultured in triplicate for 1, 3 and 5 days in human serum-containing media ± recombinant human cytokine at the concentration indicated. The number of viaBIe cells in culture was determined using the assay, where luminescent signal is directly proportional to the concentration of ATP from viaBIe cells.
In order to test this hypothesis, proliferation of MDSC in human serum-containing media with rhTNF-α, rhIL-6 and rhIL-1β was tested using the CellTiter-Glo® luminescent cell viability assay was used (Promega Corp., Madison, Wis.).
This method assays the number of viaBIe cells in culture, by measuring adenosine triphosphate (ATP), where the luminescent signal is directly proportional to the number of ATP present.

Cn1cc(C[C@H](N)C(=O)O)c2ccccc21 [1-MT, 1-methyl tryptophan, reference compound]
fracture healing ([1]; histology day 14 (FIG. 21)): accelerated fracture healing | fracture healing ([1]; histology day 14 (FIG. 21), listed as 1-methyl tryptophan): dose dependent acceleration of fracture healing | healing of tibial fractures by CT scans [1]: trend to improved healing but did not reach statistical significance | dose of greatest response (maximal dose tested) ([1]; FIG. 21): 500 µg/mL | concentrations giving accelerated fracture healing ([1]; within the range tested (0.5-5 mg/kg), histology day 14 (FIG. 21)): ≥ 500 µg/mL | aqueous solubility (Aqueous solubility): poorly soluBIe in aqueous solutions | aqueous solubility (Aqueous solubility; listed as 1MT): poor aqueous solubility

IL-1β: pro-inflammatory cytokine, recombinant human IL-1β
ALP expression (osteogenic differentiation) in cultured MDSC [2]: dose-dependent stimulation of ALP expression | concentration of peak ALP expression by MDSC ([2]; Example 3, variable between donor cell populations (FIG. 26D)): 100 µg/mL | bone nodule formation by MDSC [3]: did not stimulate bone nodule formation | migration of MDSC ([4]; Example 3): did not appear to promote MDSC migration | MDSC proliferation [5]: do not promote MDSC proliferation

IL-6: pro-inflammatory cytokine, recombinant human IL-6
ALP expression (osteogenic differentiation) in cultured MDSC [2]: dose-dependent stimulation of ALP expression | ALP expression by MDSC ([2]; Example 3): increased with the dose through the range tested | bone nodule formation by MDSC [3]: promoted de novo bone formation | chemotaxis / migration of MDSC ([4]; Example 1, transwell, 10% human serum-containing media, 24 hrs (FIG. 14)): promote chemotaxis of MDSC | migration of MDSC ([4]; Example 3): chemo attractant for MDSC | optimal concentration for MDSC migration ([4]; Example 3, transwell, 36 hours (FIG. 27B)): 1 ng/mL | MDSC proliferation [5]: do not promote MDSC proliferation

TGF-β
ALP expression (osteogenic differentiation) in cultured MDSC [2]: promotes osteogenic differentiation | ALP expression by MDSC ([2]; Example 3): did not induce ALP expression

B1: BMP7: recombinant human bone morphogenetic protein 7 (protein, UniProt P18075 293-431, looked up)
Bone morphogenetic protein 7: STGSKQRSQNRSKTPKNQEALRMANVAENSSSDQRQACKKHELYVSFRDLGWQDWIIAPEGYAAYYCEGECAFPLNSYMNATNHAIVQTLVHFINPETVPKPCCAPTQLNAISVLYFDDSSNVILKKYRNMVVRACGCH
ALP expression (osteogenic differentiation) in cultured MDSC [2]: promotes osteogenic differentiation | ALP expression by MDSC ([2]; Example 3): did not induce ALP expression | cell proliferation in excess of the media-only control [5]: did not induce cell proliferation

B2: HMGB1: damage associated molecular pattern molecule (alarmin), RAGE ligand protein (protein, UniProt P09429 1-215, looked up)
High mobility group protein B1: MGKGDPKKPRGKMSSYAFFVQTCREEHKKKHPDASVNFSEFSKKCSERWKTMSAKEKGKFEDMAKADKARYEREMKTYIPPKGETKKKFKDPNAPKRPPSAFFLFCSEYRPKIKGEHPGLSIGDVAKKLGEMWNNTAADDKQPYEKKAAKLKEKYEKDIAAYRAKGKPDAAKKGVVKAEKSKKKKEEEEDEEDEEDEEEEEDEEDEDEEEDDDDE
healing of tibial fractures by CT scans [1]: statistically significantly enhanced healing; also recorded: accelerates fracture healing

B3: BMP4: recombinant human bone morphogenetic protein 4 (protein, UniProt P12644 293-408, looked up)
Bone morphogenetic protein 4: SPKHHSQRARKKNKNCRRHSLYVDFSDVGWNDWIVAPPGYQAFYCHGDCPFPLADHLNSTNHAIVQTLVNSVNSSIPKACCVPTELSAISMLYLDEYDKVVLKNYQEMVVEGCGCR
ALP expression by MDSC ([2]; Example 3): did not induce ALP expression | cell proliferation in excess of the media-only control [5]: did not induce cell proliferation

B4: IFN-γ: proinflammatory cytokine, recombinant human Interferon-gamma (protein, UniProt P01579 24-161, looked up)
Interferon gamma: QDPYVKEAENLKKYFNAGHSDVADNGTLFLGILKNWKEESDRKIMQSQIVSFYFKLFKNFKDDQSIQKSVETIKEDMNVKFFNSNKKKRDDFEKLTNYSVTDLNVQRKAIHELIQVMAELSPAAKTGKRKRSQMLFRG
ALP expression (osteogenic differentiation) in cultured MDSC [2]: modest dose-dependent stimulation of osteogenesis
